Experimental findings from patent US20250230193A1, “CYCLIC COMPOUND HAVING SELECTIVE KRAS INHIBITORY EFFECT ON HRAS AND NRAS” (CHUGAI SEIYAKU KABUSHIKI KAISHA, priority 2022, published 2025) are described below.

*1 amine or outer side, *2 acyl side, *3 side chain or, on linkers, in order; H or OH if unused. Where a SMILES comes first, the peptide text is derived from it. Bridges are numbered along the chain shown (N, C = ends). [ ]: non-standard residue; d: D form. The star is where a group is joined. hPhe(3-Cl-4-CF3) = N[C@@H](CCc1ccc(C(F)(F)F)c(Cl)c1)C(=O)O; NPrPhe(4-CF3) = CCCN[C@@H](Cc1ccc(C(F)(F)F)cc1)C(=O)O; X10 = CCCN([C@@H](Cc1ccc(F)cc1)C(=O)[*:2])[*:1]; NMeGly(cPent) = CN[C@H](C(=O)O)C1CCCC1; Hyp = O=C(O)[C@@H]1C[C@@H](O)CN1; NMeD = CN[C@@H](CC(=O)O)C(=O)O; NMeL = CN[C@@H](CC(C)C)C(=O)O; Morpholide = C1CN(*)CCO1; Ac5c = NC1(C(=O)O)CCCC1; Aze = O=C(O)[C@@H]1CCN1; Sar = CNCC(=O)O

Test [1] addresses GDP-bound HRAS wild-type protein (Homo sapiens, UniProt P01112). In words: Binding to HRAS by surface plasmon resonance (SPR), Single Cycle Kinetics. To be noted: for HRAS/KRAS (ratio of KD value with respect to HRAS to KD value with respect to KRAS): GDP-bound HRAS wild-type vs GDP-bound KRAS wild-type.
Test [2] concerns the target GDP-bound NRAS wild-type protein (Homo sapiens, UniProt P01111). As to the kind of experiment: Binding to NRAS by surface plasmon resonance (SPR), Single Cycle Kinetics. To be noted: for NRAS/KRAS (ratio of KD value with respect to NRAS to KD value with respect to KRAS): GDP-bound NRAS wild-type vs GDP-bound KRAS wild-type.
Setting [3] is: KD ratio HRAS/KRAS, SPR, GDP-bound wild-type proteins.
[4] abbreviates: KD ratio NRAS/KRAS, SPR, GDP-bound wild-type proteins.

GDP-bound NRAS wild-type protein, sequence (P01111 whole entry): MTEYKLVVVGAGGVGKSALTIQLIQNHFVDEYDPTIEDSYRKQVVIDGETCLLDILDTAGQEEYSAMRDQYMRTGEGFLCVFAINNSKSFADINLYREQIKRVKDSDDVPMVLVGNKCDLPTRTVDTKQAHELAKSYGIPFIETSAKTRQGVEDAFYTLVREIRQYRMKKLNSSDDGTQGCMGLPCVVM
GDP-bound HRAS wild-type protein, sequence (P01112 whole entry): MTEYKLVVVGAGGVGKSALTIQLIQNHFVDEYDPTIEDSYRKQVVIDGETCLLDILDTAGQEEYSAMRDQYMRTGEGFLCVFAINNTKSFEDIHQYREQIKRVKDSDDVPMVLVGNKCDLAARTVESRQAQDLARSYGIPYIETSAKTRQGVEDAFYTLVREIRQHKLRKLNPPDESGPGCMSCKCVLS

With `CCCN1C(=O)CN(C)C(=O)CN(C)C(=O)[C@H]([C@@H](C)CC)NC(=O)[C@H](CC(C)C)N(C)C(=O)C[C@@H](C(=O)N2CCOCC2)N(C)C(=O)[C@H](C2CCCC2)N(C)C(=O)C2(CCCC2)NC(=O)[C@@H]2CCCN2C(=O)[C@H](CCc2ccc(C(F)(F)F)c(Cl)c2)NC(=O)CN(C)C(=O)[C@@H]1Cc1ccc(F)cc1` [PP0214] ([NMeL]I[Sar][Sar][X10][Sar][hPhe(3-Cl-4-CF3)]P[Ac5c][NMeGly(cPent)][NMeD]-Morpholide; lactam N-11), the “HRAS/KRAS (ratio of KD for GDP-bound HRAS wild-type to KD for KRAS)” value in test [1] (KD ratio HRAS/KRAS, SPR) was “C (A compound having a KD ratio of 0.1 or more and less than 3 is denoted as C)”. Further, in test [2] (KD ratio NRAS/KRAS, SPR), the “NRAS/KRAS (ratio of KD for GDP-bound NRAS wild-type to KD for KRAS)” value was “B (a compound having 3 or more and less than 10 is denoted as B)”.
Regarding `CCO[C@@H]1C[C@H]2C(=O)NC3(CC(C)(C)C3)C(=O)N(C)[C@@H](C3CCCC3)C(=O)N(C)[C@H](C(=O)N3CCCCC3)CC(=O)N(C)[C@H]3CC/C=C/c4ccc(cc4)C[C@@H](C(=O)N(C)CC(=O)N[C@@H](CCc4ccc(Cl)c(Cl)c4)C(=O)N2C1)N1CC/C=C\C[C@@H](C1=O)N(C)C(=O)CN(C)C(=O)[C@H]([C@@H](C)CC)NC3=O` [PP2597], in test [1] (KD ratio HRAS/KRAS, class symbols), the “HRAS/KRAS (ratio of KD value with respect to GDP-bound HRAS wild-type protein to KD value with respect to KRAS)” value is “A (a compound having 10 or more and less than 20 is denoted as A)”. The “NRAS/KRAS (ratio of KD value with respect to GDP-bound NRAS wild-type protein to KD value with respect to KRAS)” value in test [2] (KD ratio NRAS/KRAS, class symbols) was “A (a compound having 10 or more and less than 20 is denoted as A)”.
Consider `CCO[C@@H]1C[C@H]2C(=O)N(C)C3(CC(C)(C)C3)C(=O)N(C)[C@@H](C3CCCC3)C(=O)N(C)[C@H](C(=O)N(C)C)CC(=O)N(C)[C@H]3CCC/C=C/c4ccc(cc4)C[C@@H](C(=O)N(C)CC(=O)N[C@@H](CCc4ccc(Cl)c(Cl)c4)C(=O)N2C1)N1CC/C=C\C[C@@H](C1=O)N(C)C(=O)CN(C)C(=O)[C@H]([C@@H](C)CC)NC3=O` [PP3059], for which, in test [1] (setting [3]), the “HRAS/KRAS (ratio of KD value with respect to GDP-bound HRAS wild-type protein to KD value with respect to KRAS)” value is “A (a compound having 10 or more and less than 20 is denoted as A)”. Further, the “NRAS/KRAS (ratio of KD value with respect to GDP-bound NRAS wild-type protein to KD value with respect to KRAS)” value in test [2] (setting [4]) was “A (a compound having 10 or more and less than 20 is denoted as A)”.
On to `CCC[C@H]1C(=O)N[C@@H]([C@@H](C)CC)C(=O)N(C)CC(=O)N(C)[C@H]2C/C=C\CCN(C2=O)[C@@H](Cc2ccc(C)cc2)C(=O)N(C)CC(=O)N[C@@H](CCc2ccc(Cl)c(Cl)c2)C(=O)N2C[C@H](OCC)C[C@H]2C(=O)NC2(CC(C)(C)C2)C(=O)N(C)[C@@H](C(CC)CC)C(=O)N(C)[C@H](C(=O)N(C)C)CC(=O)N1C` [PP2184], for which, in test [1] (SPR), the “HRAS/KRAS (ratio of KD value with respect to HRAS to KD value with respect to KRAS)” value is “A (a compound having 10 or more and less than 20 is denoted as A)”. In addition, in test [2] (SPR), the “NRAS/KRAS (ratio of KD value with respect to NRAS to KD value with respect to KRAS)” value is “AA (a compound having 20 or more is denoted as AA)”.
For `CCC[C@H]1C(=O)N[C@@H]([C@@H](C)CC)C(=O)N(C)CC(=O)N(C)[C@H]2C/C=C\CCN(C2=O)[C@@H](Cc2ccc(C)cc2)C(=O)N(C)CC(=O)N[C@@H](CCc2ccc(C(F)(F)F)c(OC)c2)C(=O)N2CC3(CC3)C[C@H]2C(=O)NC2(CC(C)(C)C2)C(=O)N(C)[C@@H](CC(F)(F)F)C(=O)N(C)[C@H](C(=O)N(C)C)CC(=O)N1C` [PP3012], the “HRAS/KRAS (ratio of KD value with respect to GDP-bound HRAS wild-type protein to KD value with respect to KRAS)” value in test [1] (setting [3]) is “A (a compound having 10 or more and less than 20 is denoted as A)”. The “NRAS/KRAS (ratio of KD value with respect to GDP-bound NRAS wild-type protein to KD value with respect to KRAS)” value in test [2] (setting [4]) was “A (a compound having 10 or more and less than 20 is denoted as A)”.
In the case of `CCCN1C(=O)[C@@H]2CCN2C(=O)CN(C)C(=O)[C@H]([C@@H](C)CC)NC(=O)[C@H](CC(C)C)N(C)C(=O)C[C@@H](C(=O)N2CCOCC2)N(C)C(=O)[C@H](C2CCCC2)N(C)C(=O)C2(CCCC2)NC(=O)[C@@H]2C[C@@H](OCC)CN2C(=O)[C@H](CCc2ccc(C(F)(F)F)c(Cl)c2)NC(=O)CN(C)C(=O)[C@@H]1Cc1ccc(C(F)(F)F)cc1` [PP0410] ([NMeL]I[Sar][Aze][NPrPhe(4-CF3)][Sar][hPhe(3-Cl-4-CF3)][Hyp](Et)[Ac5c][NMeGly(cPent)][NMeD]-Morpholide; lactam N-11), the “HRAS/KRAS (ratio of KD value with respect to GDP-bound HRAS wild-type protein to KD value with respect to KRAS)” value in test [1] (KD ratio HRAS/KRAS, SPR) was “B (a compound having 3 or more and less than 10 is denoted as B)”. Besides, in test [2] (KD ratio NRAS/KRAS, SPR), the “NRAS/KRAS (ratio of KD value with respect to GDP-bound NRAS wild-type protein to KD value with respect to KRAS)” value is “C (A compound having a KD ratio of 0.1 or more and less than 3 is denoted as C)”.
Regarding `CCC[C@H]1C(=O)N[C@@H]([C@@H](C)CC)C(=O)N(C)CC(=O)N(C)[C@H]2C/C=C\CCN(C2=O)[C@@H](CC2CCC(F)(F)CC2)C(=O)N(C)CC(=O)N[C@@H](CCc2ccc(C(F)(F)F)c(OC)c2)C(=O)N2C[C@H](OCC)C[C@H]2C(=O)NC2(CC(C)(C)C2)C(=O)N(C)[C@@H](C(CC)CC)C(=O)N(C)[C@H](C(=O)N(C)C)CC(=O)N1C` [PP2482], the “HRAS/KRAS (ratio of KD value with respect to HRAS to KD value with respect to KRAS)” value in test [1] (SPR) is “A (a compound having 10 or more and less than 20 is denoted as A)”. Further, the “NRAS/KRAS (ratio of KD value with respect to NRAS to KD value with respect to KRAS)” value in test [2] (SPR) is “A (a compound having 10 or more and less than 20 is denoted as A)”.
